The subject of test [1] is H460 (NRF2 pathway mutant cell line with high AKR1C3 expression). Description: In vitro cell proliferation assay (CellTiter-Glo), H460. The class given is cell-based. Particulars: Homo sapiens, NCI-H460, 72 h; H460 cells, 3 days, CellTiter-Glo, top concentration 10 μM; read-out: H460 Qualified absolute AC50. An outline of the steps: (§1)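 Luminescent CellTiter-Glo readout after 3-day compound exposure at 37 °C; 8-point 1:5 series, top 10 μM final. Seeding: 800 cells/well for H460, 2000 cells/well for Hara, RPMI-1640 plus 10% FBS. AC50 and percentage activity derived after normalizing to DMSO (1%) and MG132 (30 μM) controls.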
Background: In ATP-based viability assays light output follows the ATP content of the culture.

In test [2] the test system is Hara (NRF2 pathway wild type cell line with low AKR1C3 expression). Description: In vitro cell proliferation assay (CellTiter-Glo), Hara. The format is cell-based. The following applies: 72 h; Hara cells, 3 days, CellTiter-Glo, top concentration 10 μM; read-out: HARA Qualified absolute AC50. An outline of the steps: as §1

Drawing on patent US11970497B2, “Tricyclic AKR1C3 dependent KARS inhibitors” (Novartis AG, priority 2019, dated 2024), this text covers AC50 for 28 compounds.

The AC50 is the concentration at which the activity in the assay is half-maximal. As to `NC(=O)c1cc(CNC(=O)N2CCC3(CC2)CC(=O)c2cc(F)ccc2N3)ccc1F` [Example 24, N-(3-carbamoyl-4-fluorobenzyl)-6′-fluoro-4′-oxo-3′,4′-dihydro-1′H-spiro[piperidine-4,2′-quinoline]-1-carboxamide], the half-maximal activity concentration (AC50) in test [1] stood at 46 nM; in test [2] it was 5940 nM.
For `O=C1CC2(CCN(C(=O)NCc3ccc(OC(F)F)cc3)CC2)Nc2c(F)cc(F)cc21` [Example 150, N-(4-(difluoromethoxy)benzyl)-6′,8′-difluoro-4′-oxo-3′,4′-dihydro-1′H-spiro[piperidine-4,2′-quinoline]-1-carboxamide], the results for the AC50 in test [1] and in test [2] were 6270 nM and 2620 nM, respectively.
The corresponding values for `O=C1CC2(CCN(C(=O)NCc3ccc(F)c(NS(=O)(=O)C4CC4)c3)CC2)Nc2ccc(F)cc21` [Example 133, N-(3-(cyclopropanesulfonamido)-4-fluorobenzyl)-6′-fluoro-4′-oxo-3′,4′-dihydro-1′H-spiro[piperidine-4,2′-quinoline]-1-carboxamide] are 1770 nM and above 10000 nM.
On to `O=C1CC2(CCN(C(=O)NCc3ccc(F)c(CNCCO)c3)CC2)Nc2ccc(F)cc21` [Example 146, 6′-fluoro-N-(4-fluoro-3-(((2-hydroxyethyl)amino)methyl)benzyl)-4′-oxo-3′,4′-dihydro-1′H-spiro[piperidine-4,2′-quinoline]-1-carboxamide], for which the AC50 in test [1] turned out to be 3650 nM; in test [2] it was 2790 nM.
The like results for `O=C1CC2(CCN(C(=O)NCc3cccc4c3OCO4)CC2)Nc2c(F)cc(F)cc21` [Example 53, N-(benzo[d][1,3]dioxol-4-ylmethyl)-6′,8′-difluoro-4′-oxo-3′,4′-dihydro-1′H-spiro[piperidine-4,2′-quinoline]-1-carboxamide] were, in that order, 141 nM and 2020 nM.
Consider `COc1cc(CNC(=O)N2CCC3(CC2)CC(=O)c2cc(F)ccc2N3C)ccc1F` [Example 8, 6′-fluoro-N-(4-fluoro-3-methoxybenzyl)-1′-methyl-4′-oxo-3′,4′-dihydro-1′H-spiro[piperidine-4,2′-quinoline]-1-carboxamide], for which the results for the AC50 in test [1] and in test [2] were 15 nM and above 10000 nM, respectively.
Take `O=C1CC2(CCN(C(=O)NCc3ccccc3)CC2)Nc2ccc(F)cc21` [Example 33, N-benzyl-6′-fluoro-4′-oxo-3′,4′-dihydro-1′H-spiro[piperidine-4,2′-quinoline]-1-carboxamide]: the AC50 is 75 nM in test [1] and 1190 nM in test [2].
Regarding `Cn1cc(CNC(=O)N2CCC3(CC2)CC(=O)c2cc(F)ccc2N3)cn1` [Example 145, 6′-fluoro-N-((1-methyl-1H-pyrazol-4-yl)methyl)-4′-oxo-3′,4′-dihydro-1′H-spiro[piperidine-4,2′-quinoline]-1-carboxamide], the half-maximal activity concentration (AC50) in test [1] was 3500 nM; in test [2] it was 6060 nM.
Regarding `O=C1CC2(CCN(C(=O)NCc3cccc(-c4cnco4)c3)CC2)Nc2c(F)cc(F)cc21` [Example 35, 6′,8′-difluoro-N-(3-(oxazol-5-yl)benzyl)-4′-oxo-3′,4′-dihydro-1′H-spiro[piperidine-4,2′-quinoline]-1-carboxamide], the AC50 in test [1] came out at 77 nM; in test [2], 2720 nM.
As to `O=C1CC2(CCN(C(=O)NCc3ncccc3O)CC2)Nc2c(F)cc(F)cc21` [Example 63, 6′,8′-difluoro-N-((3-hydroxypyridin-2-yl)methyl)-4′-oxo-3′,4′-dihydro-1′H-spiro[piperidine-4,2′-quinoline]-1-carboxamide], the values for the AC50 in test [1] and in test [2] were 222 nM and above 10000 nM, respectively.
Regarding `Nc1ccc(CNC(=O)N2CCC3(CC2)CC(=O)c2cc(F)ccc2N3)c(C(F)(F)F)c1` [Example 104, N-(4-amino-2-(trifluoromethyl)benzyl)-6′-fluoro-4′-oxo-3′,4′-dihydro-1′H-spiro[piperidine-4,2′-quinoline]-1-carboxamide], the concentration at half-maximal activity (AC50) in test [1] is 573 nM; in test [2] it was above 10000 nM.
Turning to `CCN1c2ccc(F)cc2C(=O)CC12CCN(C(=O)NCc1ccc(F)c(NCCO)c1)CC2` [Example 25, 1′-ethyl-6′-fluoro-N-(4-fluoro-3-((2-hydroxyethyl)amino)benzyl)-4′-oxo-3′,4′-dihydro-1′H-spiro[piperidine-4,2′-quinoline]-1-carboxamide], the half-maximal activity concentration (AC50) is 47 nM in test [1] and 1660 nM in test [2].
The corresponding values for `COc1cc(CNC(=O)N2CCC3(CC2)CC(=O)c2cc(F)cc(F)c2N3)ccn1` [Example 115, 6′,8′-difluoro-N-((2-methoxypyridin-4-yl)methyl)-4′-oxo-3′,4′-dihydro-1′H-spiro[piperidine-4,2′-quinoline]-1-carboxamide] are 930 nM and above 10000 nM.
On to `CS(=O)(=O)Nc1cc(CNC(=O)N2CCC3(CC2)CC(=O)c2cc(F)ccc2N3)ccc1F` [Example 131, 6′-fluoro-N-(4-fluoro-3-(methylsulfonamido)benzyl)-4′-oxo-3′,4′-dihydro-1′H-spiro[piperidine-4,2′-quinoline]-1-carboxamide], for which the half-maximal activity concentration (AC50) in test [1] was 1620 nM; in test [2] it was above 10000 nM.
With `O=C(NC1COC1)c1cc(CNC(=O)N2CCC3(CC2)CC(=O)c2cc(F)ccc2N3)ccc1F` [Example 105, 6′-fluoro-N-(4-fluoro-3-(oxetan-3-ylcarbamoyl)benzyl)-4′-oxo-3′,4′-dihydro-1′H-spiro[piperidine-4,2′-quinoline]-1-carboxamide], the AC50 in test [1] was 580 nM; in test [2] it was above 10000 nM.
The corresponding values for `Cc1cc(N)ccc1CNC(=O)N1CCC2(CC1)CC(=O)c1cc(F)ccc1N2` [Example 116, N-(4-amino-2-methylbenzyl)-6′-fluoro-4′-oxo-3′,4′-dihydro-1′H-spiro[piperidine-4,2′-quinoline]-1-carboxamide] are 935 nM and above 10000 nM.
Consider `COC1CN(c2cc(CNC(=O)N3CCC4(CC3)CC(=O)c3cc(F)ccc3N4)ccc2F)C1` [Example 102, 6′-fluoro-N-(4-fluoro-3-(3-methoxyazetidin-1-yl)benzyl)-4′-oxo-3′,4′-dihydro-1′H-spiro[piperidine-4,2′-quinoline]-1-carboxamide], for which the concentration at half-maximal activity (AC50) in test [1] stood at 555 nM; in test [2], 3720 nM.
With `Nc1c(F)ccc(CNC(=O)N2CCC3(CC2)CC(=O)c2cc(F)ccc2N3)c1F` [Example 84, N-(3-amino-2,4-difluorobenzyl)-6′-fluoro-4′-oxo-3′,4′-dihydro-1′H-spiro[piperidine-4,2′-quinoline]-1-carboxamide], the results for the AC50 in test [1] and in test [2] were 367 nM and above 10000 nM, respectively.
The like results for `COc1cc(F)ccc1CNC(=O)N1CCC2(CC1)CC(O)c1cc(F)ccc1N2` (racemic) [Example 168, 6′-fluoro-N-(4-fluoro-2-methoxybenzyl)-4′-hydroxy-3′,4′-dihydro-1′H-spiro[piperidine-4,2′-quinoline]-1-carboxamide] were, in that order, 41 nM and 49 nM.
The like results for `O=C1CC2(CCN(C(=O)NCc3ccon3)CC2)Nc2ccc(F)cc21` [Example 118, 6′-fluoro-N-(isoxazol-3-ylmethyl)-4′-oxo-3′,4′-dihydro-1′H-spiro[piperidine-4,2′-quinoline]-1-carboxamide] were, in that order, 1010 nM and above 10000 nM.
On to `Nc1cc(CNC(=O)N2CCC3(CC2)CC(=O)c2cc(F)cc(F)c2N3)ccc1F` [Example 73, N-(3-amino-4-fluorobenzyl)-6′,8′-difluoro-4′-oxo-3′,4′-dihydro-1′H-spiro[piperidine-4,2′-quinoline]-1-carboxamide], for which the concentration at half-maximal activity (AC50) came out at 295 nM in test [1] and 3480 nM in test [2].
The corresponding values for `CN1c2ccc(F)cc2C(=O)CC12CCN(C(=O)NCc1ccc(F)c(NCCOP(=O)(O)O)c1)CC2` [Example 28] are 52 nM and above 10000 nM.
With `CN1c2ccc(F)cc2C(=O)CC12CCN(C(=O)NCc1ccc(F)cc1NCCO)CC2` [Example 86, 6′-fluoro-N-(4-fluoro-2-((2-hydroxyethyl)amino)benzyl)-1′-methyl-4′-oxo-3′,4′-dihydro-1′H-spiro[piperidine-4,2′-quinoline]-1-carboxamide], the half-maximal activity concentration (AC50) in test [1] was 379 nM; in test [2] it was above 10000 nM.
The corresponding values for `O=C1CC2(CCN(C(=O)NCc3cccc(-n4cncn4)c3)CC2)Nc2c(F)cc(F)cc21` [Example 144, N-(3-(1H-1,2,4-triazol-1-yl)benzyl)-6′,8′-difluoro-4′-oxo-3′,4′-dihydro-1′H-spiro[piperidine-4,2′-quinoline]-1-carboxamide] are 3050 nM and above 10000 nM.
The corresponding values for `O=C1CC2(CCN(C(=O)NCc3ccoc3)CC2)Nc2c(F)cc(F)cc21` [Example 46, 6′,8′-difluoro-N-(furan-3-ylmethyl)-4′-oxo-3′,4′-dihydro-1′H-spiro[piperidine-4,2′-quinoline]-1-carboxamide] are 105 nM and 2940 nM.
With `Nc1ccc(CNC(=O)N2CCC3(CC2)CC(=O)c2cc(F)ccc2N3)c(F)c1F` [Example 57, N-(4-amino-2,3-difluorobenzyl)-6′-fluoro-4′-oxo-3′,4′-dihydro-1′H-spiro[piperidine-4,2′-quinoline]-1-carboxamide], the AC50 in test [1] is 170 nM; in test [2] it was above 10000 nM.
The corresponding values for `Nc1ccc(CNC(=O)N2CCC3(CC2)CC(=O)c2cc(F)ccc2N3)cc1F` [Example 56, N-(4-amino-3-fluorobenzyl)-6′-fluoro-4′-oxo-3′,4′-dihydro-1′H-spiro[piperidine-4,2′-quinoline]-1-carboxamide] are 166 nM and above 10000 nM.
`Nc1ccc(CNC(=O)N2CCC3(CC2)CC(=O)c2cc(F)ccc2N3)cc1` [Example 89, N-(4-aminobenzyl)-6′-fluoro-4′-oxo-3′,4′-dihydro-1′H-spiro[piperidine-4,2′-quinoline]-1-carboxamide]: the AC50 was 436 nM in test [1] and above 10000 nM in test [2].
